Laboratory results from patent US20230322776A1, “NEW ARYL-PYRIDO-PYRIMIDIN-ONE DERIVATIVES” (Hoffmann-La Roche Inc., priority 2020, published 2023).
pEC50, pIC50, pKd: −log10 of the molar value.

Assays:
BRAF = BRAF (Homo sapiens, UniProt P15056); assay: KD BRAF (Table 1; no method described); type: binding
[1] = test system: HCT116 cells (WT BRAF), ERK phospho-T202/Y204; assay: HTRF assay for P-ERK determination in HCT116 cells (BRAF activation, paradox); type: cell-based; conditions: for pEC50: Homo sapiens, HCT-116, HCT116 cells, 1 hour drug incubation, activation relative to maximum Dabrafenib-mediated activation (100%), top concentration 10 μM, read-out: P-ERK_HCT-116: EC50—50PCT; for Fold Selectivity HCT-116 EC50-50/ A375: ratio of P-ERK HCT-116 EC50-50PCT to P-ERK A375 IC50
Excerpt: (§1) A375 is a cellular cancer model expressing V600E mutated BRAF and HCT116 a cellular cancer model expressing WT BRAF. First generation BRAF inhibitors such as e.g. dabrafenib induce a paradox effect on tumour cells in that they inhibit the growth of V600E mutated BRAF cells (such as e.g. A375), while they activate growth in WT BRAF cells (such as e.g. HCT 116). ERK 1,2 phosphorylation (terminal member of the phosphorylation cascade of the MAPK pathway) is hereafter reported as main readout for the activation status of the MAPK pathway. DMEM no-phenol red medium supplemented with L-glutamine was purchased from (Thermo Fisher Scientific). Fetal bovine serum (FBS) was purchased from VWR. Advanced ERK phospho-T202/Y204 kit—10,000 tests was purchased from Cisbio cat #64AERPEH. A375 (catalog #CRL-1619) and HCT116 (catalog #CCL-247) cells were originally obtained from American type Culture Collection (ATCC) and banked by the Roche repository. 384-Well microplates ultized were purchased from Greiner Bio-One, 384-well, (With Lid, HiBase, Low volume cat 784-080).
(§2) HTRF Assay for P-ERK Determination in A375 or HCT116 Cells
(§3) Prior to the assay, A375 and HCT116 cell lines are maintained in DMEM no-phenol red medium supplemented with 10% fetal bovine serum (FBS). Following compound treatment, P-ERK levels are determined by measuring FRET fluorescence signal induced by selective binding of two antibodies provided in the mentioned kit (Cisbio cat #64AERPEH) on ERK protein when phosphorylated at Thr202/Tyr204. Briefly, 8000 cells/well in 12 μl media/well are plated in the 384-well plate and left overnight in the incubator (at 37° C. with 5% CO2-humidified atmosphere), the following day the plate is treated in duplicate with test compounds, dabrafenib and PLX8394 (the latter two as controls) at the following final drug concentrations: 10 μM, 3 μM, 1 μM, 0.3 μM, 0.1 μM, 0.03 μM, 0.01 μM, 0.003 μM and 0.001 μM. All wells are subjected to DMSO normalization and drug incubation occurs for 1 hour. Then, 4 μl of a 4× lysis buffer supplied with the kit are added to the wells, the plate is then centrifuged for 30 second (3000 rpm) and incubated on a plate shaker for 1 h at rt.
(§4) At the end of the incubation 4 μl/well of advanced P-ERK antibody solution (prepared according to manufacturer's instruction) followed by 4 μl/well of criptate P-ERK antibody solution (prepared according to manufacturer's instruction) (Cisbio cat #64AERPEH) are added to test wells.
(§5) In order to allow proper data normalization, control wells non drug treated reported in the following table are always included in each plate (according to manufacturer's instruction):
(§6) The plate is then centrifuged at 3000 rpm for 30 seconds, sealed to prevent evaporation and incubated overnight in the dark at room temperature. The plate is then analyzed and fluorescence emission value collected through a Pherastast FSX (BMG Labtech) apparatus at […]. The obtained fluorescence values are processed according to the formula Ratio=[…]*10000 then the average of the ratio on the blank is subtracted to all values.
Data are normalized in the case of HCT116 cells (BRAF activation) considering the average of the ratio (blank subtracted) derived by DMSO only treated cells as 0% and by considering the average of the ratio (blank subtracted) derived by Dabrafenib treated cells at the concentration which provides the highest signal as 100%. Individual points are fitted with either sigmoidal or bell shape curves, the percentage of activation compared to maximum Dabrafenib-mediated activation is determined.

BRAF V660E = BRAF V660E (Homo sapiens, UniProt P15056, V600E); assay: KD BRAF V660E (Table 1; no method described); type: binding
[2] = test system: A375 cells (V600E mutated BRAF), ERK phospho-T202/Y204; assay: HTRF assay for P-ERK determination in A375 cells (BRAF inhibition); type: cell-based; conditions: Homo sapiens, A-375, 1 hour drug incubation, DMSO = 100%, 10 μM Dabrafenib = 0%, top concentration 10 μM, read-out: P-ERK_A375: IC50
Excerpt: as §1, §2, §3, §4, §5, §6
Data are normalized in the case of A375 cells (BRAF inhibition) considering the average of the ratio (blank subtracted) derived by DMSO only treated cells as 100% and by considering the average of the ratio (blank subtracted) derived by 10 μM Dabrafenib treated cells as 0%. Mean of the normalized points are fitted with sigmoidal curve and IC50 values are determined.

Chain of BRAF (P15056 whole entry): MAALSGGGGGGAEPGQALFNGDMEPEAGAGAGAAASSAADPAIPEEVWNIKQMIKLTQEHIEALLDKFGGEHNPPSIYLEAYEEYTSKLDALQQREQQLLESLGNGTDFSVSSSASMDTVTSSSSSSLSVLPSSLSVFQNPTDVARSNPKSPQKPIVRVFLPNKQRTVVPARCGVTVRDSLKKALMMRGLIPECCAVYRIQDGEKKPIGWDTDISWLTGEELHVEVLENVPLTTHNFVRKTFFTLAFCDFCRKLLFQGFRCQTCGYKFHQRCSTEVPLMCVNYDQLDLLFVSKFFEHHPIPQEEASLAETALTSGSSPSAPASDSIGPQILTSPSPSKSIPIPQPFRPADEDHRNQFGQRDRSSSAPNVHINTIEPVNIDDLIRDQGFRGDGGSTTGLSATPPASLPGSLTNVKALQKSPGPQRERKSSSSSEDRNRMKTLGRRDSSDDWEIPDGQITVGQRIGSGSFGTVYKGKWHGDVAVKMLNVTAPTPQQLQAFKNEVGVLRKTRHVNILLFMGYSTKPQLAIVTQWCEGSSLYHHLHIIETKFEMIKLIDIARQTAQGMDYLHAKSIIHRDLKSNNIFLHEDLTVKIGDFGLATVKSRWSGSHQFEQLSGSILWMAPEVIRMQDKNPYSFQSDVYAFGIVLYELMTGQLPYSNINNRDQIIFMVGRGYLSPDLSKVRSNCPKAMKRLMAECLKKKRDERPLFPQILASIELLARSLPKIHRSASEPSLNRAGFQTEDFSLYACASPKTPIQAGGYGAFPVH
Chain of BRAF V660E (P15056 2-766 V600E): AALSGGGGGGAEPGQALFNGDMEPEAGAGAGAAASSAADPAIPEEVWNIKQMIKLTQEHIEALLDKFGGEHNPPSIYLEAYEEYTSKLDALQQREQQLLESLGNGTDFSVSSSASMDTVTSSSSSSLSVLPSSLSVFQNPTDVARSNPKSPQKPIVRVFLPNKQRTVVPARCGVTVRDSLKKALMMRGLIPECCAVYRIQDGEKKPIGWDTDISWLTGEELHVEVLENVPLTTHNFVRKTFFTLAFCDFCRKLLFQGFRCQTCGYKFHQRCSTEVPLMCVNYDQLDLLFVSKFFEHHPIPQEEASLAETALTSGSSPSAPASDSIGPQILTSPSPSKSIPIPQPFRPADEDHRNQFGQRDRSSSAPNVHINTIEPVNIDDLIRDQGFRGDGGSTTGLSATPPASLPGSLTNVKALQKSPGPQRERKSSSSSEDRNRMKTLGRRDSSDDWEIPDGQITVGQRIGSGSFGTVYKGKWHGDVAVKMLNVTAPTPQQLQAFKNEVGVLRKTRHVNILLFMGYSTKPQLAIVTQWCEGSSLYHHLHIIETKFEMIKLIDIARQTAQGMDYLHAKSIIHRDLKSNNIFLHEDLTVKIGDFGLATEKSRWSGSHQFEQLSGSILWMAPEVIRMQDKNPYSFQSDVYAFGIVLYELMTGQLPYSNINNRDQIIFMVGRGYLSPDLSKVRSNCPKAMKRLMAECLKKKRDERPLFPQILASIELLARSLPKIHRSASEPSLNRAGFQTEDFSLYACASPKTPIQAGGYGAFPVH

With `CCN(C)S(=O)(=O)Nc1ccc(F)c(-c2cc3cnc(NCCOCCOCCO)nc3n(C)c2=O)c1F` [Example 9, 6-[3-[[ethyl(methyl)sulfamoyl]amino]-2,6-difluorophenyl]-2-[2-[2-(2-hydroxyethoxy)ethoxy]ethylamino]-8-methyl-7-oxopyrido[2,3-d]pyrimidine] the pKd (BRAF) was 6.87, the pEC50 [1] was ≤ 5.00 and the “Fold Selectivity HCT-116 EC50-50/ A375” value [1] was >65.4. It also gave a pKd (BRAF V660E) of 6.38 and a pIC50 [2] of 6.82.
In the case of `Cn1c(=O)c(-c2c(F)ccc(NS(=O)(=O)N3CC[C@@H](F)C3)c2F)cc2cnc(NCC3CC3)nc21` [Example 10, (3R)-N-[3-[2-(cyclopropylmethylamino)-8-methyl-7-oxopyrido[2,3-d]pyrimidin-6-yl]-2,4-difluorophenyl]-3-fluoropyrrolidine-1-sulfonamide], the pKd (BRAF) was 7.72, the pEC50 [1] was 6.19 and the “Fold Selectivity HCT-116 EC50-50/ A375” value [1] was 65.1. It also gave a pKd (BRAF V660E) of 7.43 and a pIC50 [2] of 8.00.
In the case of `CCN(C)S(=O)(=O)Nc1ccc(F)c(-c2cc3cnc(NCC4CC4)nc3n(C)c2=O)c1F` [Example 11, 2-(cyclopropylmethylamino)-6-[3-[[ethyl(methyl)sulfamoyl]amino]-2,6-difluorophenyl]-8-methyl-7-oxopyrido[2,3-d]pyrimidine], the pKd (BRAF) was 6.80, the pEC50 [1] was ≤ 5.00 and the “Fold Selectivity HCT-116 EC50-50/ A375” value [1] was >140.9. It also gave a pKd (BRAF V660E) of 6.36 and a pIC50 [2] of 7.15.
In the case of `CN(C1CC1)S(=O)(=O)Nc1ccc(F)c(-c2cc3cnc(NCC4CC4)nc3n(C)c2=O)c1F` [Example 12, 2-(cyclopropylmethylamino)-6-[3-[[cyclopropyl(methyl)sulfamoyl]amino]-2,6-difluorophenyl]-8-methyl-7-oxopyrido[2,3-d]pyrimidine], the pKd (BRAF) was 7.07, the pEC50 [1] was 5.65 and the “Fold Selectivity HCT-116 EC50-50/ A375” value [1] was 20.4. It also gave a pKd (BRAF V660E) of 6.31 and a pIC50 [2] of 6.96.
For `Cn1c(=O)c(-c2c(F)ccc(NS(=O)(=O)C3CCCC3)c2F)cc2cnc(NCCC3CCN(C(=O)OC(C)(C)C)CC3)nc21` [Example 13, tert-butyl 4-[2-[[6-[3-(cyclopentylsulfonylamino)-2,6-difluorophenyl]-8-methyl-7-oxopyrido[2,3-d]pyrimidin-2-yl]amino]ethyl]piperidine-1-carboxylate], the pKd (BRAF) was 6.46, the pEC50 [1] was 5.02 and the “Fold Selectivity HCT-116 EC50-50/ A375” value [1] was 34.7. For the same compound, the pKd (BRAF V660E) was 6.36 and the pIC50 [2] was 6.56.
With `Cl.Cn1c(=O)c(-c2c(F)ccc(NS(=O)(=O)N3CC[C@@H](F)C3)c2F)cc2cnc(NCCC3CCNCC3)nc21` [Example 14, (3R)—N-[2,4-difluoro-3-[8-methyl-7-oxo-2-(2-piperidin-4-ylethylamino)pyrido[2,3-d]pyrimidin-6-yl]phenyl]-3-fluoropyrrolidine-1-sulfonamide hydrochloride] the pKd (BRAF) was 7.42, the pEC50 [1] was ≤ 5.00 and the “Fold Selectivity HCT-116 EC50-50/ A375” value [1] was 12.7. The pKd (BRAF V660E) was 6.97 and the pIC50 [2] was 6.10.
In the case of `Cl.Cn1c(=O)c(-c2c(F)ccc(NS(=O)(=O)N3CC[C@@H](F)C3)c2F)cc2cnc(NCCOCCN)nc21` [Example 15, (3R)-N-[3-[2-[2-(2-aminoethoxy)ethylamino]-8-methyl-7-oxopyrido[2,3-d]pyrimidin-6-yl]-2,4-difluorophenyl]-3-fluoropyrrolidine-1-sulfonamide hydrochloride], the pKd (BRAF) was 7.09, the pEC50 [1] was ≤ 5.00 and the “Fold Selectivity HCT-116 EC50-50/ A375” value [1] was 16.2. For the same compound, the pKd (BRAF V660E) was 6.71 and the pIC50 [2] was 6.21.
`CNCCCNc1ncc2cc(-c3c(F)ccc(NS(=O)(=O)N4CC[C@@H](F)C4)c3F)c(=O)n(C)c2n1.Cl` [Example 16, (3R)-N-[2,4-difluoro-3-[8-methyl-2-[3-(methylamino)propylamino]-7-oxopyrido[2,3-d]pyrimidin-6-yl]phenyl]-3-fluoropyrrolidine-1-sulfonamide hydrochloride] was tested, and the pKd (BRAF) was 6.83, the pEC50 [1] was ≤ 5.00 and the “Fold Selectivity HCT-116 EC50-50/ A375” value [1] was 14.6. It also gave a pKd (BRAF V660E) of 6.53 and a pIC50 [2] of 6.16.
For `CCN(C)S(=O)(=O)Nc1ccc(F)c(-c2cc3cnc(NCCCNC)nc3n(C)c2=O)c1F.Cl` [Example 17, 6-[3-[[ethyl(methyl)sulfamoyl]amino]-2,6-difluorophenyl]-8-methyl-2-[3-(methylamino)propylamino]-7-oxopyrido[2,3-d]pyrimidine hydrochloride], the pKd (BRAF) was 6.78, the pEC50 [1] was 5.12 and the “Fold Selectivity HCT-116 EC50-50/ A375” value [1] was 6.0. It also gave a pKd (BRAF V660E) of 6.41 and a pIC50 [2] of 5.90.
In the case of `Cl.Cn1c(=O)c(-c2c(F)ccc(NS(=O)(=O)N3CC[C@@H](F)C3)c2F)cc2cnc(NCCCC3CCNCC3)nc21` [Example 18, (3R)-N-[2,4-difluoro-3-[8-methyl-7-oxo-2-(3-piperidin-4-ylpropylamino)pyrido[2,3-d]pyrimidin-6-yl]phenyl]-3-fluoropyrrolidine-1-sulfonamide hydrochloride], the pKd (BRAF) was 7.59, the pEC50 [1] was 5.23 and the “Fold Selectivity HCT-116 EC50-50/ A375” value [1] was 28.3. The pKd (BRAF V660E) was 7.15 and the pIC50 [2] was 6.68.
In the case of `Cl.Cn1c(=O)c(-c2c(F)ccc(NS(=O)(=O)N3CC[C@@H](F)C3)c2F)cc2cnc(NCCCC(=O)NC3CCNCC3)nc21` [Example 19, 4-[[6-[2,6-difluoro-3-[[(3R)-3-fluoropyrrolidin-1-yl]sulfonylamino]phenyl]-8-methyl-7-oxopyrido[2,3-d]pyrimidin-2-yl]amino]-N-piperidin-4-ylbutanamide hydrochloride], the pKd (BRAF) was 7.42, the pEC50 [1] was ≤ 5.00 and the “Fold Selectivity HCT-116 EC50-50/ A375” value [1] was 1.4. It also gave a pKd (BRAF V660E) of 7.22 and a pIC50 [2] of 5.14.
For `CC(=O)N1CCC(CCNc2ncc3cc(-c4c(F)ccc(NS(=O)(=O)N5CC[C@@H](F)C5)c4F)c(=O)n(C)c3n2)CC1` [Example 20, (3R)—N-[3-[2-[2-(1-acetylpiperidin-4-yl)ethylamino]-8-methyl-7-oxopyrido[2,3-d]pyrimidin-6-yl]-2,4-difluorophenyl]-3-fluoropyrrolidine-1-sulfonamide], the pKd (BRAF) was 7.99, the pEC50 [1] was 5.78 and the “Fold Selectivity HCT-116 EC50-50/ A375” value [1] was 44.9. For the same compound, the pKd (BRAF V660E) was 7.57 and the pIC50 [2] was 7.44.
`CC(=O)N1CCC(CNc2ncc3cc(-c4c(F)ccc(NS(=O)(=O)N5CC[C@@H](F)C5)c4F)c(=O)n(C)c3n2)CC1` [Example 21, (3R)-N-[3-[2-[(1-acetylpiperidin-4-yl)methylamino]-8-methyl-7-oxopyrido[2,3-d]pyrimidin-6-yl]-2,4-difluorophenyl]-3-fluoropyrrolidine-1-sulfonamide] was tested, and the pKd (BRAF) was 7.21, the pEC50 [1] was ≤ 5.00 and the “Fold Selectivity HCT-116 EC50-50/ A375” value [1] was >115.3. For the same compound, the pKd (BRAF V660E) was 6.96 and the pIC50 [2] was 7.06.
`CC(=O)N1CC(Nc2ncc3cc(-c4c(F)ccc(NS(=O)(=O)N5CC[C@@H](F)C5)c4F)c(=O)n(C)c3n2)C1` [Example 22, (3R)-N-[3-[2-[(1-acetylazetidin-3-yl)amino]-8-methyl-7-oxopyrido[2,3-d]pyrimidin-6-yl]-2,4-difluorophenyl]-3-fluoropyrrolidine-1-sulfonamide] was tested, and the pKd (BRAF) was 8.15, the pEC50 [1] was ≤ 5.00 and the “Fold Selectivity HCT-116 EC50-50/ A375” value [1] was >54.4. The pKd (BRAF V660E) was 7.68 and the pIC50 [2] was 6.74.
